From the supplement of paper PMC11451515

Test system: NOMO1
Assay: cell viability relative to DMSO control; higher = less cytotoxic
Settings: 48 h
Procedure, shortened: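 In 1536-well plates, 5 μl of leukemia cells were seeded per well: 500 cells/well for NOMO1 or SEM and 1000 cells/well for P12-Ichikawa. Each line had first been adapted for at least four passages in each medium. Library compounds in DMSO were pin-dosed at 11 threefold concentrations between 47 μM and 0.79 nM, and CellTiter-Glo One luminescence was read after 48 h at 37°C. Viability is a per-plate percentage relative to DMSO wells, with cell-free wells as background.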

[1] = HPLM + 10% dialyzed FBS, 0.000781 µM
[2] = HPLM + 10% dialyzed FBS, 0.00234 µM
[3] = HPLM + 10% dialyzed FBS, 0.00702 µM
[4] = HPLM + 10% dialyzed FBS, 0.0211 µM
[5] = HPLM + 10% dialyzed FBS, 0.0632 µM
[6] = HPLM + 10% dialyzed FBS, 0.19 µM
[7] = HPLM + 10% dialyzed FBS, 0.569 µM
[8] = HPLM + 10% dialyzed FBS, 1.71 µM
[9] = HPLM + 10% dialyzed FBS, 5.12 µM
[10] = HPLM + 10% dialyzed FBS, 15.4 µM
[11] = HPLM + 10% dialyzed FBS, 46.1 µM
[12] = RPMI 5 mM glucose + 10% FBS, 0.000781 µM
[13] = RPMI 5 mM glucose + 10% FBS, 0.00234 µM
[14] = RPMI 5 mM glucose + 10% FBS, 0.00702 µM
[15] = RPMI 5 mM glucose + 10% FBS, 0.0211 µM
[16] = RPMI 5 mM glucose + 10% FBS, 0.0632 µM
[17] = RPMI 5 mM glucose + 10% FBS, 0.19 µM
[18] = RPMI 5 mM glucose + 10% FBS, 0.569 µM
[19] = RPMI 5 mM glucose + 10% FBS, 1.71 µM
[20] = RPMI 5 mM glucose + 10% FBS, 5.12 µM
[21] = RPMI 5 mM glucose + 10% FBS, 15.4 µM
[22] = RPMI 5 mM glucose + 10% FBS, 46.1 µM
[23] = RPMI 5 mM glucose + 10% dialyzed FBS, 0.000781 µM
[24] = RPMI 5 mM glucose + 10% dialyzed FBS, 0.00234 µM
[25] = RPMI 5 mM glucose + 10% dialyzed FBS, 0.00702 µM
[26] = RPMI 5 mM glucose + 10% dialyzed FBS, 0.0211 µM
[27] = RPMI 5 mM glucose + 10% dialyzed FBS, 0.0632 µM
[28] = RPMI 5 mM glucose + 10% dialyzed FBS, 0.19 µM
[29] = RPMI 5 mM glucose + 10% dialyzed FBS, 0.569 µM
[30] = RPMI 5 mM glucose + 10% dialyzed FBS, 1.71 µM
[31] = RPMI 5 mM glucose + 10% dialyzed FBS, 5.12 µM
[32] = RPMI 5 mM glucose + 10% dialyzed FBS, 15.4 µM
[33] = RPMI 5 mM glucose + 10% dialyzed FBS, 46.1 µM

Row | Compound | cell viability [1] | cell viability [2] | cell viability [3] | cell viability [4] | cell viability [5] | cell viability [6] | cell viability [7] | cell viability [8] | cell viability [9] | cell viability [10] | cell viability [11] | cell viability [12] | cell viability [13] | cell viability [14] | cell viability [15] | cell viability [16] | cell viability [17] | cell viability [18] | cell viability [19] | cell viability [20] | cell viability [21] | cell viability [22] | cell viability [23] | cell viability [24] | cell viability [25] | cell viability [26] | cell viability [27] | cell viability [28] | cell viability [29] | cell viability [30] | cell viability [31] | cell viability [32] | cell viability [33]
1 | COc1ccc(CCC(=O)c2c(O)cc(O[C@@H]3O[C@H](CO)[C@@H](O)[C@H](O)[C@H]3O[C@@H]3O[C@@H](C)[C@H](O)[C@@H](O)[C@H]3O)cc2O)cc1O | 105% | 138% | 124% | 122% | 120% | 124% | 117% | 102% | 91.2% | 36.1% | 42.7% | 118% | 140% | 114% | 123% | 119% | 119% | 111% | 107% | 114% | 45.2% | 20.7% | 118% | 121% | 119% | 119% | 135% | 116% | 117% | 113% | 110% | 40.2% | 34.4%
2 | Cc1ccc(Nc2cc(-c3cccc(N4C(=O)c5ccccc5C4=O)c3)ncn2)cc1N[S+](C)(=O)[O-] | 107% | 113% | 156% | 123% | 127% | 149% | 128% | 140% | 153% | 132% | 107% |  |  |  |  |  |  |  |  |  |  |  |  |  |  |  |  |  |  |  |  |  | 
3 | Oc1cc(-c2nc(-c3ccccc3)[nH]c2-c2ccncc2)ccc1Cl | 111% | 119% | 119% | 112% | 123% | 120% | 108% | 84.2% | 78.8% | 49.2% | 21.4% | 106% | 104% | 107% | 107% | 121% | 103% | 109% | 102% | 107% | 87.1% | 32.2% | 101% | 107% | 121% | 107% | 123% | 109% | 104% | 92.1% | 81.3% | 74.8% | 32%
4 | Cc1ccc2nc(NCCN)c3ncc(C)n3c2c1 | 116% | 99.9% | 121% | 104% | 108% | 107% | 105% | 101% | 113% | 88.7% | 8.31% | 88.1% | 92.2% | 91.9% | 94.1% | 98.1% | 98.4% | 100% | 87.8% | 90.2% | 84.9% | 11.3% | 87.9% | 95.8% | 104% | 104% | 99% | 96% | 95.6% | 96.7% | 100% | 81.6% | 7.57%
5 | C[S+](=O)([O-])Oc1ccc2c(NC(N)=O)c(C(=O)c3ccc(Cl)cc3Cl)oc2c1 | 115% | 103% | 114% | 113% | 140% | 139% | 127% | 128% | 105% | 100% | 42.7% | 105% | 111% | 104% | 115% | 120% | 119% | 125% | 117% | 115% | 106% | 50.3% | 127% | 111% | 122% | 126% | 119% | 116% | 115% | 128% | 135% | 105% | 76.8%
6 | OC1=CC=C(C=C1)C/2=C/C3=C(OC2)C=C(O)C=C3 | 118% | 123% | 114% | 111% | 118% | 111% | 100% | 82.8% | 60.9% | 26.3% | 5.22% | 97.2% | 108% | 117% | 99.8% | 108% | 108% | 104% | 93.3% | 89.4% | 23.9% | 9.27% | 108% | 118% | 110% | 109% | 101% | 105% | 111% | 106% | 96.8% | 33.1% | 14.9%
7 | CCCCCNC(=N)N/N=C/c1c[nH]c2ccc(OC)cc12 | 123% | 121% | 134% | 132% | 137% | 135% | 147% | 137% | 132% | 71.7% | 48.8% | 122% | 122% | 142% | 131% | 145% | 155% | 141% | 129% | 134% | 93.4% | 26.7% |  |  |  |  |  |  |  |  |  |  | 
8 | OC[C@H]1O[C@H](C[C@@H]1O)N2/C=C(C(=O)NC2=O)/C(F)(F)F | 128% | 120% | 106% | 116% | 120% | 114% | 82.8% | 58.8% | 69.7% | 45% | 26.5% | 99.8% | 117% | 116% | 116% | 114% | 107% | 118% | 115% | 107% | 86.9% | 42.9% | 115% | 110% | 121% | 113% | 103% | 113% | 97.4% | 96% | 67.7% | 31.3% | 18.3%
9 | COC1=CC=C(C=C1)/C2=C(O)/C(=O)C3=C(O)C=C(O)C(=C3O2)CC=C(C)C | 105% | 120% | 122% | 114% | 132% | 117% | 115% | 127% | 124% | 104% | 130% |  |  |  |  |  |  |  |  |  |  |  |  |  |  |  |  |  |  |  |  |  | 
10 | CCCN[C@H]1CCc2nc(N)sc2C1 | 105% | 102% | 104% | 116% | 95.4% | 102% | 119% | 112% | 123% | 118% | 114% | 86.8% | 84.8% | 96.6% | 89.3% | 92.6% | 90.6% | 85.3% | 96.2% | 96.7% | 90.5% | 89.3% | 83.9% | 93.1% | 104% | 98.8% | 106% | 102% | 101% | 107% | 87.1% | 109% | 82.4%
11 | CC[C@H]1OC(=O)[C@H](C)[C@@H](O[C@H]2C[C@@](C)(OC)[C@@H](O)[C@H](C)O2)[C@H](C)[C@@H](O[C@@H]2O[C@H](C)C[C@H](N(C)C)[C@H]2O)[C@](C)(OC)C[C@@H](C)C(=O)[C@H](C)[C@@H](O)[C@]1(C)O | 110% | 121% | 96.8% | 105% | 89.3% | 92.2% | 92.6% | 90.9% | 84.9% | 88.3% | 101% | 103% | 101% | 99.5% | 101% | 97% | 105% | 84% | 92.9% | 81.5% | 79.2% | 81.2% | 86.3% | 87.5% | 83.1% | 92.6% | 93.8% | 87.8% | 79.7% | 80.5% | 84% | 84.4% | 83.4%
12 | C[C@H](NC(=O)Cc1cc(F)cc(F)c1)C(=O)N[C@H](C(=O)OC(C)(C)C)c1ccccc1 | 98.4% | 110% | 98.2% | 101% | 111% | 91.2% | 101% | 73.8% | 91.6% | 91.3% | 80.3% | 88.9% | 84.9% | 92.2% | 80.8% | 92% | 87.4% | 76.1% | 79.3% | 76.4% | 81.9% | 75.4% | 95.3% | 85.3% | 94% | 85.2% | 101% | 92.9% | 91.4% | 92.7% | 92.6% | 79.5% | 82.8%
13 | CC(=O)OC[C@@H]1O[C@H]([C@H](OC(C)=O)[C@@H]1OC(C)=O)N2\C=C/C(=O)NC2=O |  |  |  |  |  |  |  |  |  |  |  | 107% | 117% | 115% | 117% | 125% | 121% | 102% | 111% | 105% | 82.9% | 22.6% |  |  |  |  |  |  |  |  |  |  | 
14 | Oc1ccc(OCc2ccccc2)cc1 | 108% | 131% | 116% | 106% | 132% | 108% | 102% | 107% | 105% | 79.7% | 48.6% | 119% | 113% | 127% | 120% | 114% | 127% | 105% | 104% | 101% | 110% | 87.8% | 110% | 116% | 105% | 112% | 108% | 106% | 114% | 113% | 116% | 89.9% | 60.7%
15 | CCCCCCNC(=O)N1\C=C(F)/C(=O)NC1=O | 117% | 136% | 124% | 127% | 128% | 137% | 122% | 124% | 118% | 94.6% | 79.9% | 111% | 119% | 136% | 109% | 109% | 114% | 129% | 127% | 122% | 115% | 83.9% | 124% | 136% | 124% | 122% | 110% | 128% | 130% | 120% | 110% | 82.3% | 69.6%
16 | NC(=O)c1cccc(-c2cc(Nc3ccc(OC(F)(F)F)cc3)ncn2)c1 | 88.6% | 99.5% | 96% | 93.9% | 108% | 101% | 97.2% | 94.1% | 103% | 84.5% | 81.4% | 85.8% | 91% | 93.4% | 95.7% | 90% | 103% | 103% | 85.8% | 90.3% | 84.1% | 80.5% | 91.7% | 94.7% | 84.3% | 86.1% | 93.3% | 92.8% | 88.2% | 89.1% | 94.2% | 79.6% | 91.7%
17 | CN1CCc2c(c3ccccc3n2Cc2ccc(C(=O)NO)cc2)C1 | 76% | 78.8% | 76.3% | 79.8% | 80% | 80.5% | 82.6% | 87.6% | 97.5% | 64.7% | 38.6% | 75.2% | 70.2% | 77.2% | 82.5% | 74.1% | 73.4% | 80.9% | 76.5% | 75.8% | 78.7% | 47.2% | 71.5% | 69.8% | 91.9% | 91.1% | 84.6% | 87.7% | 89.5% | 98% | 92.5% | 72.3% | 53.5%
